Test results reported in patent EP0591582B1, “Hexahydrobenzo (f) quinolinones as 5-alpha-reductase inhibitors” (ELI LILLY AND COMPANY, priority 1992, dated 1994).

Molecular target: T1, 5α-reductase (Homo sapiens, UniProt P18405)
T1 construct: host or cells: Hs68 human genital skin fibroblasts
T1 sequence (P18405 1-259): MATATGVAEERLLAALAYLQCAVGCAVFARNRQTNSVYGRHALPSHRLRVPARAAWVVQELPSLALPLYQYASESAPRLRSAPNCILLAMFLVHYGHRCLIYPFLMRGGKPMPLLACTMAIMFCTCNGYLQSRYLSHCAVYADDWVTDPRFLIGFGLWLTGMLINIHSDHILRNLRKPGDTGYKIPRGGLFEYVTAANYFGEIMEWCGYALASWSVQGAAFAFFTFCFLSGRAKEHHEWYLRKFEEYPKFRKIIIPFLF
Assay: 5α-Reductase activity (conversion of testosterone to DHT) in Hs68 human genital skin fibroblasts, TLC of radiolabelled steroids
Type: cell-based
Conditions: Hs68 cells, four hours incubation, 0 equals no activity, 100 equals total inhibition; for inhibition at 316 µM: Concentration 0.316 mM; for inhibition at 10000 µM: Concentration 10.0 mM
Description: Cell Culture: 5α-Reductase activity was measured using Hs68 human genital skin fibroblasts which were originally purchased from the American Type Culture Collection(Rockville, MD). The cells were grown in Dulbecco's Modified Eagle's Medium (DMEM) plus 10% stripped fetal bovine serum which was supplemented with amphotericin B ([…]) and gentamicin ([…]) (GIBCO, Grand Island, NY). The serum was stripped of endogenous steroids by incubation with dextran-coated charcoal prior to its addition to the media. The cells were maintained at 37°C in an atmosphere of 95% air, 5% CO2 and were passaged every 7-10 days by exposure to a trypsin-EDTA solution (0.025% trypsin, 0.265 mM EDTA). Prior to the assay the Hs68 cells were harvested and plated in Falcon 6-well plates (Becton Dickinson Labware, Lincoln Park, NJ) at a density of 6 x 10^4 cells per well. The cells were allowed to grow for 4-5 days or until they reached approximately 80% confluence.
Assay Method I: The substrate was prepared by dissolving unlabeled testosterone (Sigma Chemical Co., St. Louis, MO) in absolute ethanol followed by the addition of [7-^3H (N)]-testosterone (23.3 Ci/mmole, New England Nuclear, Boston, MA). The steroid solution was taken to dryness under a stream of nitrogen and then reconstituted in media.
Assay Method II: The substrate used for this method was [^14C]-testosterone (50 mCi/mmol) (New England Nuclear, Boston, MA). An aliquot of the substrate was taken to dryness under a stream of nitrogen. After the addition of […] of ethanol, the testosterone was brought up in an appropriate volume of media.
Sample Preparation: The test compounds were dissolved in absolute ethanol in order to achieve the desired concentration. Subsequent dilutions of the test compounds with media were performed by the Biomek 1000 Automated Laboratory Workstation (Beckman Instruments, Palo Alto, CA). The existing media in the sample wells was aspirated and replaced with fresh media. Test compound was then added to the wells followed by the addition of 0.5 ml of the substrate. The volume of the incubation mixture was maintained at 2.0 ml. The final substrate concentration was […]. The concentration of the test compounds ranged from 0.001-15 mM. An additional three wells (background) containing media and substrate but no cells were also included to account for the non-enzymatic metabolism of the substrate. The plates were returned to the incubator and incubated for four hours.
At the end of the incubation the media was collected and transferred to an extraction tube containing 5 ml of toluene-ethanol (9:1), to which has been added […] each of unlabeled carrier steroids (estriol, estradiol, estrone, 5α-androstan-3α,17b-diol, 5α-androstan-3b,17b-diol, 4-androstene-3,17-dione, 5α-androstan-3,17-dione, testosterone, and 5α-dihydrotestosterone) (Steraloids, Inc. Wilton, NH). In the case of Assay Method I the extraction tube also contained 1,000 and 10,000 dpm of [4-^14C]-dihydrotestosterone(50-60 mCi/mmol) and [4-^14C]-testosterone (50 mCi/mmol) (New England Nuclear, Boston, MA), respectively. The [^14C]-steroids were included as recovery standards to quantify procedural losses. A small amount of NaCl was also added to the extraction tubes to prevent foaming. The samples were vortexed for approximately 30 seconds and then centrifuged for 10 minutes at 500 x g. The organic phase was collected and the samples taken to dryness, redissolved in dichloromethane-methanol (9:1) and were analyzed by thin layer chromatography using one of the methods described below.
Chromatography Method I (two-dimensional): The extracted samples were appled to silica gel 60F254, 0.25 mm thick, thin layer chromatography plates (EM Science, Cincinnati, OH). The plates were developed in the first dimension with a solvent system containing dichloromethaneethyl acetate-methanol-acetic acid (160:38:1.5:0.5, Mallinckrodt Inc., Paris, KY). […]

Row | Compound | inhibition at 10000 µM [%] | other results
1 | O=C1CCC2=C(CCc3cc(Br)ccc32)N1 [Example 1, 8-bromo-1,2,3,4,5,6-hexahydrobenzo[f]quinolin-3-one] | – | inhibition at 316 µM: 73%
2 | CN1C(=O)CCC2=C1CCc1cc(Br)ccc12 [Example 2, 8-bromo-4-methyl-1,2,3,4,5,6-hexahydrobenzo-[f]quinolin-3-one] | 98 | –
3 | O=C1CCC2=C(CCc3cc(Cl)c(Cl)cc32)N1 [Example 3, 8,9-dichloro-1,2,3,4,5,6-hexahydrobenzo[f]quinolin-3-one] | – | inhibition at 316 µM: 85%
4 | CN1C(=O)CCC2=C1CCc1cc(Cl)ccc12 [Example 4, 8-chloro-4-methyl-1,2,3,4,5,6-hexahydrobenzo[f]quinolin-3-one] | 91 | –
5 | Cc1ccc2c(c1)CCC1=C2CCC(=O)N1C [Example 5, 4,8-dimethyl-1,2,3,4,5,6-hexahydrobenzo[f]quinolin-3-one] | 100 | –
6 | CN1C(=O)CCC2=C1CCc1cc(F)ccc12 [Example 6, 8-fluoro-4-methyl-1,2,3,4,5,6-hexahydrobenzo[f]quinolin-3-one] | 81 | –
7 | O=C1CCC2=C(CCc3ccccc32)N1 [Example 8, 1,2,3,4,5,6-hexahydrobenzo[f]quinolin-3-one] | 63 | –
8 | O=C1CCC2=C(CCc3cc(F)ccc32)N1 [Example 9, 8-fluoro-1,2,3,4,5,6-hexahydrobenzo[f]quinolin-3-one] | 76 | –
9 | Cc1ccc2c(c1)CCC1=C2CCC(=O)N1 [Example 13, 8-methyl-1,2,3,4,5,6-hexahydrobenzo[f]quinolin-3-one] | 100 | –
10 | CC1(C)CC2=C(CCC(=O)N2)c2ccc(Br)cc21 [Example 14, 8-bromo-6,6-dimethyl-1,2,3,4,5,6-hexahydrobenzo[f]quinolin-3-one] | – | inhibition at 316 µM: 30%
11 | CC(C)(C)c1ccc2c(c1)CCC1=C2CCC(=O)N1 [Example 15, 8-t-butyl-1,2,3,4,5,6-hexahydrobenzo[f]quinolin-3-one] | – | inhibition at 3160 µM (Concentration 3.16 mM): 30%
12 | O=C1CCC2=C(CCc3cccc(F)c32)N1 [Example 20, 10-fluoro-1,2,3,4,5,6-hexahydrobenzo[f]quinolin-3-one] | – | % Inhibition (Concentration 1.0 (1.00) mM): 22%
13 | CCCCN1C(=O)CCC2=C1CCc1cc(F)ccc12 [Example 25, 8-fluoro-4-n-butyl-1,2,3,4,5,6-hexahydrobenzo[f]quinolin-3-one] | 56 | –
